Measurements: patent publication US20230263822A1, “MODULATION OF FACTOR 11 EXPRESSION” (Ionis Pharmaceuticals, Inc., priority 2008, published 2023)
Strand notation (5' to 3'): a small letter for the sugar, then the base; units joined by * are phosphorothioate-linked, units joined directly phosphodiester-linked; [ ] holds rarer units or linkages, { } end groups; capitals alone tell only the bases. e = 2'-O-(2-methoxyethyl) (MOE); [5mC] = 5-methylcytosine; d = 2'-deoxy (DNA)

Experiments:
[1] = tested on: human Factor 11 mRNA; assay: Dose-dependent inhibition of human Factor 11 in cyano primary hepatocytes, electroporation (Example 6); format: cell-based; settings: ~16 hours
Protocol: Cells were plated at a density of 35,000 cells per well and transfected via electroporation with 0.74 nM, 2.2 nM, 6.7 nM, 20 nM, 60 nM, and 180 nM concentrations of antisense oligonucleotide, as specified in Table 13. After a treatment period of approximately 16 hours, RNA was isolated from the cells and human Factor 11 mRNA levels were measured by quantitative real-time PCR. Human Factor 11 primer probe set RTS 2966 was used to measure mRNA levels. Factor 11 mRNA levels were adjusted according to total RNA content, as measured by RIBOGREEN. Results are presented as percent inhibition of human Factor 11, relative to untreated control cells.

[2] = tested on: human Factor 11 mRNA; assay: Dose-dependent inhibition of human Factor 11 in HepB3 cells, lipofectin (Example 7); format: cell-based; settings: for percent inhibition of Factor 11 mRNA relative to untreated control cells: ~16 hours
Protocol: Cells were plated at a density of 4,000 cells per well and transfected using lipofectin reagent with 2.3 nM, 4.7 nM, 9.4 nM, 18.75 nM, 37.5 nM, and 75 nM concentrations of antisense oligonucleotide, as specified in Table 14. After a treatment period of approximately 16 hours, RNA was isolated from the cells and human Factor 11 mRNA levels were measured by quantitative real-time PCR. Human Factor 11 primer probe set RTS 2966 was used to measure mRNA levels. Factor 11 mRNA levels were adjusted according to total RNA content, as measured by RIBOGREEN. Results are presented as percent inhibition of Factor 11, relative to untreated control cells.

[3] = Tolerability in Sprague-Dawley rats: body weight and organ weight (Example 35); format: in vivo; settings: 50 mg/kg s.c. twice per week for 6 weeks; for Percent change: Body weight: percent change over the weights at the start of the study; for Percent change in organ weight: Kidney / Percent change in organ weight: Liver / Percent change in organ weight: Spleen: vs saline control, normalized to body weight
Excerpt: Urine samples were taken before the start of treatment.
The body weights are presented in Table 71 and are expressed as a percent change over the weights taken at the start of the study.

[4] = Hematology assays in cynomolgus monkeys (Example 46); format: in vivo
Protocol: Groups, each consisting of two male and two female monkeys, were injected subcutaneously with 25 mg/kg of ISIS 416850, ISIS 449709, ISIS 445522, ISIS 449710, ISIS 449707, ISIS 449711, ISIS 449708, 416858, and ISIS 445531. Antisense oligonucleotide was administered to the monkeys at 25 mg/kg three times per week for week 1 and 25 mg/kg twice per week for weeks 2 to 8. A control group, consisting of two male and two female monkeys was injected subcutaneously with PBS according to the same dosing regimen. Body weights were taken 14 days and 7 days before the start of treatment and were then measured weekly throughout the treatment period. Blood samples were collected 14 days and 5 days before the start of treatment and subsequently several times during the dosing regimen for PT and aPTT measurements, and measurement of various hematologic factors. On day 55, the monkeys were euthanized by exsanguination while under deep anesthesia, and organs harvested for further analysis.

416825 (antisense GCCCTTCATGTCTAGGTCCA; 5-10-5 gapmer, further chemistry not given here) [compound 416825]
percent inhibition of human Factor 11 mRNA relative to untreated control cells ([1]; 0.74 nM): 5%
percent inhibition of human Factor 11 mRNA relative to untreated control cells ([1]; 2.2 nM): 22%
percent inhibition of human Factor 11 mRNA relative to untreated control cells ([1]; 6.7 nM): 51%
percent inhibition of human Factor 11 mRNA relative to untreated control cells ([1]; 20 nM): 61%
percent inhibition of human Factor 11 mRNA relative to untreated control cells ([1]; 60 nM): 77%
percent inhibition of human Factor 11 mRNA relative to untreated control cells ([1]; 180 nM): 84%
IC50 [2]: 35 nM
percent inhibition of Factor 11 mRNA relative to untreated control cells ([2]; 2.3 nM): 0%
percent inhibition of Factor 11 mRNA relative to untreated control cells ([2]; 4.7 nM): 15%
percent inhibition of Factor 11 mRNA relative to untreated control cells ([2]; 9.4 nM): 34%
percent inhibition of Factor 11 mRNA relative to untreated control cells ([2]; 18.75 nM): 36%
percent inhibition of Factor 11 mRNA relative to untreated control cells ([2]; 37.5 nM): 53%
percent inhibition of Factor 11 mRNA relative to untreated control cells ([2]; 75 nM): 59%
Percent change: Body weight [3]: −18%
Percent change in organ weight: Kidney [3]: +25%
Percent change in organ weight: Liver [3]: +20%
Percent change in organ weight: Spleen [3]: +245%

416826 (antisense ATGCCCTTCATGTCTAGGTC; 5-10-5 gapmer, further chemistry not given here) [compound 416826]
percent inhibition of human Factor 11 mRNA relative to untreated control cells ([1]; 0.74 nM): 13%
percent inhibition of human Factor 11 mRNA relative to untreated control cells ([1]; 2.2 nM): 24%
percent inhibition of human Factor 11 mRNA relative to untreated control cells ([1]; 6.7 nM): 34%
percent inhibition of human Factor 11 mRNA relative to untreated control cells ([1]; 20 nM): 67%
percent inhibition of human Factor 11 mRNA relative to untreated control cells ([1]; 60 nM): 69%
percent inhibition of human Factor 11 mRNA relative to untreated control cells ([1]; 180 nM): 71%
IC50 [2]: 16 nM
percent inhibition of Factor 11 mRNA relative to untreated control cells ([2]; 2.3 nM): 16%
percent inhibition of Factor 11 mRNA relative to untreated control cells ([2]; 4.7 nM): 28%
percent inhibition of Factor 11 mRNA relative to untreated control cells ([2]; 9.4 nM): 38%
percent inhibition of Factor 11 mRNA relative to untreated control cells ([2]; 18.75 nM): 55%
percent inhibition of Factor 11 mRNA relative to untreated control cells ([2]; 37.5 nM): 64%
percent inhibition of Factor 11 mRNA relative to untreated control cells ([2]; 75 nM): 66%
Percent change: Body weight [3]: −40%
Percent change in organ weight: Kidney [3]: +44%
Percent change in organ weight: Liver [3]: +81%
Percent change in organ weight: Spleen [3]: +537%

416838 (antisense GCAACCGGGATGATGAGTGC; 5-10-5 gapmer, further chemistry not given here) [compound 416838]
percent inhibition of human Factor 11 mRNA relative to untreated control cells ([1]; 0.74 nM): 0%
percent inhibition of human Factor 11 mRNA relative to untreated control cells ([1]; 2.2 nM): 0%
percent inhibition of human Factor 11 mRNA relative to untreated control cells ([1]; 6.7 nM): 21%
percent inhibition of human Factor 11 mRNA relative to untreated control cells ([1]; 20 nM): 34%
percent inhibition of human Factor 11 mRNA relative to untreated control cells ([1]; 60 nM): 48%
percent inhibition of human Factor 11 mRNA relative to untreated control cells ([1]; 180 nM): 62%
IC50 [2]: 11 nM
percent inhibition of Factor 11 mRNA relative to untreated control cells ([2]; 2.3 nM): 23%
percent inhibition of Factor 11 mRNA relative to untreated control cells ([2]; 4.7 nM): 34%
percent inhibition of Factor 11 mRNA relative to untreated control cells ([2]; 9.4 nM): 43%
percent inhibition of Factor 11 mRNA relative to untreated control cells ([2]; 18.75 nM): 59%
percent inhibition of Factor 11 mRNA relative to untreated control cells ([2]; 37.5 nM): 71%
percent inhibition of Factor 11 mRNA relative to untreated control cells ([2]; 75 nM): 56%
Percent change: Body weight [3]: −23%
Percent change in organ weight: Kidney [3]: −0.5%
Percent change in organ weight: Liver [3]: +8%
Percent change in organ weight: Spleen [3]: +212%

416850 (antisense TGCACAGTTTCTGGCAGGCC; 5-10-5 gapmer, further chemistry not given here) [compound 416850]
percent inhibition of human Factor 11 mRNA relative to untreated control cells ([1]; 0.74 nM): 2%
percent inhibition of human Factor 11 mRNA relative to untreated control cells ([1]; 2.2 nM): 20%
percent inhibition of human Factor 11 mRNA relative to untreated control cells ([1]; 6.7 nM): 24%
percent inhibition of human Factor 11 mRNA relative to untreated control cells ([1]; 20 nM): 65%
percent inhibition of human Factor 11 mRNA relative to untreated control cells ([1]; 60 nM): 69%
percent inhibition of human Factor 11 mRNA relative to untreated control cells ([1]; 180 nM): 67%
IC50 [2]: 13 nM
percent inhibition of Factor 11 mRNA relative to untreated control cells ([2]; 2.3 nM): 22%
percent inhibition of Factor 11 mRNA relative to untreated control cells ([2]; 4.7 nM): 32%
percent inhibition of Factor 11 mRNA relative to untreated control cells ([2]; 9.4 nM): 43%
percent inhibition of Factor 11 mRNA relative to untreated control cells ([2]; 18.75 nM): 56%
percent inhibition of Factor 11 mRNA relative to untreated control cells ([2]; 37.5 nM): 75%
percent inhibition of Factor 11 mRNA relative to untreated control cells ([2]; 75 nM): 60%
Percent change: Body weight [3]: −33%
Percent change in organ weight: Kidney [3]: +47%
Percent change in organ weight: Liver [3]: +23%
Percent change in organ weight: Spleen [3]: +354%

416858 (antisense ACGGCATTGGTGCACAGTTT; 5-10-5 gapmer, further chemistry not given here) [compound 416858]
percent inhibition of human Factor 11 mRNA relative to untreated control cells ([1]; 0.74 nM): 2%
percent inhibition of human Factor 11 mRNA relative to untreated control cells ([1]; 2.2 nM): 13%
percent inhibition of human Factor 11 mRNA relative to untreated control cells ([1]; 6.7 nM): 22%
percent inhibition of human Factor 11 mRNA relative to untreated control cells ([1]; 20 nM): 44%
percent inhibition of human Factor 11 mRNA relative to untreated control cells ([1]; 60 nM): 63%
percent inhibition of human Factor 11 mRNA relative to untreated control cells ([1]; 180 nM): 68%
IC50 [2]: 12 nM
percent inhibition of Factor 11 mRNA relative to untreated control cells ([2]; 2.3 nM): 17%
percent inhibition of Factor 11 mRNA relative to untreated control cells ([2]; 4.7 nM): 34%
percent inhibition of Factor 11 mRNA relative to untreated control cells ([2]; 9.4 nM): 43%
percent inhibition of Factor 11 mRNA relative to untreated control cells ([2]; 18.75 nM): 57%
percent inhibition of Factor 11 mRNA relative to untreated control cells ([2]; 37.5 nM): 74%
percent inhibition of Factor 11 mRNA relative to untreated control cells ([2]; 75 nM): 62%
Percent change: Body weight [3]: −21%
Percent change in organ weight: Kidney [3]: +5%
Percent change in organ weight: Liver [3]: +8%
Percent change in organ weight: Spleen [3]: +187%

ISIS 449711: 3-8-3, 4-8-4, 2-10-2, 3-10-3 or 4-10-4 MOE microwalk gapmer (Table 46) (antisense eA*e[5mC]*dA*dG*dT*dT*dT*d[5mC]*dT*dG*dG*d[5mC]*eA*eG)
HCT ([4]; Day 17): 42%
MCH ([4]; Day 17): 22.2 pg
MCHC ([4]; Day 17): 29.9 g/dL
MCV ([4]; Day 17): 75 fL
RBC count ([4]; Day 17): 5.6e+06 µL⁻¹
WBC count ([4]; Day 17): 10000 µL⁻¹
hemoglobin content ([4]; Day 17): 12.5 g/dL
monocytes ([4]; Day 17): 5.9%
neutrophils ([4]; Day 17): 52%
platelet count ([4]; Day 17): 325 ×100/μL
HCT ([4]; Day 31): 39%
MCH ([4]; Day 31): 22.1 pg
MCHC ([4]; Day 31): 29.8 g/dL
MCV ([4]; Day 31): 73 fL
RBC count ([4]; Day 31): 5.4e+06 µL⁻¹
WBC count ([4]; Day 31): 9000 µL⁻¹
hemoglobin content ([4]; Day 31): 11.8 g/dL
monocytes ([4]; Day 31): 6.9%
neutrophils ([4]; Day 31): 58%
platelet count ([4]; Day 31): 309 ×100/μL
HCT ([4]; Day 45): 39%
MCH ([4]; Day 45): 21.7 pg
MCHC ([4]; Day 45): 29.6 g/dL
MCV ([4]; Day 45): 73 fL
RBC count ([4]; Day 45): 5.4e+06 µL⁻¹
WBC count ([4]; Day 45): 9000 µL⁻¹
hemoglobin content ([4]; Day 45): 11.5 g/dL
monocytes ([4]; Day 45): 7.6%
neutrophils ([4]; Day 45): 45%
platelet count ([4]; Day 45): 257 ×100/μL
HCT ([4]; Day 55): 38%
MCH ([4]; Day 55): 21.3 pg
MCHC ([4]; Day 55): 29.5 g/dL
MCV ([4]; Day 55): 73 fL
RBC count ([4]; Day 55): 5.3e+06 µL⁻¹
WBC count ([4]; Day 55): 7000 µL⁻¹
hemoglobin content ([4]; Day 55): 11.3 g/dL
monocytes ([4]; Day 55): 7.8%
neutrophils ([4]; Day 55): 70%
platelet count ([4]; Day 55): 259 ×100/μL
HCT ([4]; Day-5): 41%
MCH ([4]; Day-5): 22.7 pg
MCHC ([4]; Day-5): 30.7 g/dL
MCV ([4]; Day-5): 74 fL
RBC count ([4]; Day-5): 5.7e+06 µL⁻¹
WBC count ([4]; Day-5): 12000 µL⁻¹
hemoglobin content ([4]; Day-5): 12.7 g/dL
monocytes ([4]; Day-5): 2.3%
neutrophils ([4]; Day-5): 71%
platelet count ([4]; Day-5): 431 ×100/μL
HCT ([4]; Day-14): 41%
MCH ([4]; Day-14): 22.6 pg
MCHC ([4]; Day-14): 31.0 g/dL
MCV ([4]; Day-14): 73 fL
RBC count ([4]; Day-14): 5.6e+06 µL⁻¹
WBC count ([4]; Day-14): 13000 µL⁻¹
hemoglobin content ([4]; Day-14): 12.7 g/dL
monocytes ([4]; Day-14): 1.2%
neutrophils ([4]; Day-14): 64%
platelet count ([4]; Day-14): 410 ×100/μL
